According to US11684599B2, “Very-long-chain polyunsaturated fatty acids, elovanoid hydroxylated derivatives, and methods of use” (Board of Supervisors of Louisiana State University and …, priority 2017, dated 2023):

How the values were obtained:
ARPE-19 cells under UOS = experiment: Western blot of pro-survival and pro-apoptotic proteins in RPE cells under UOS; type: cell-based, human; conditions: for pro-apoptotic protein Bax / pro-apoptotic protein Bid / pro-apoptotic protein Bim: ARPE-19 cells under UOS; for SIRT1 expression: RPE under UOS; for Prohibitin (type-1) expression: concentration-dependent (100 and 250 nM); for Sirtuin1 (SIRT1) expression: dose-dependent, 100-200 nM
Protocol: ARPE19 cells at 75-80% confluence (72 h growth in DMEM/F12+10% FBS) in 6-well plates were serum-starved for 8 h before exposure. The serum-starved cells were treated with TNF-α (Sigma-Aldrich, St. Louis, Mo.) (10 ng/ml) and H2O2 (600 μM) to induce oxidative stress and challenged with increasing concentrations (50-500 nM) of VLC-PUFA (C32:6n3 and C34:6n3) simultaneously with oxidative stress for 16 h (apoptosis) and 6 h (Western-blot) before detection of apoptosis and harvesting for protein analysis. In some experiments, DHA at a concentration of 100 nM and 15-LOX-1 inhibitor PD146176 at a concentration of 1 μM was added to treat the RPE cells under stress. Cell extracts were made and protein concentrations adjusted by Bio-Rad (Hercules, Calif.) protein reagent and used for Western blot analysis.
Bcl-2 family proteins, SIRT1 and Proinhibitin (type-1), and Iduna proteins were analyze by Western blot analysis. In brief, 20-25 μg equivalents of each cell extracts were subject to electrophoresis on a 4-12% gel (Promega) at 125 V for 2 h. The proteins were transferred to nitrocellulose membrane by I-blot transfer apparatus. The membranes were subjected to treatment with primary antibodies specific for Bcl-2, Bcl-xL, Bax, Bid, Bim, SIRT1 and Prohibitin (type-1) (Santa Cruz Biotechnology) and Iduna antibody (Neuro-Mab Lab, UCLA, Los Angeles, Calif.) overnight at 4° C. and probed for 45 mins with secondary antibody, goat anti-mouse Ig:horseradish peroxidase, and horseradish peroxidase-conjugated anti-biotin antibody, and then proteins were evaluated by using an ECL kit (Amersham).

[1] = system: rats with fluid percussion injury (FPI); experiment: Traumatic brain injury (fluid percussion injury), neurobehavioral score and MRI; type: in vivo; conditions: moderate FPI; 1 μg/per rat into subdural space 1 h after TBI; days 1-14; versus CSF
Protocol: FIGS. 23A and 23C: delivery via an intravenous injection; FIG. 23B: delivery via subdural injection. SD rats were subjected to a moderate fluid percussion injury (FPI) model and treated (1 μg/per rat) with 32- and 34 carbon elovanoids as the methyl ester (ME) or sodium salt (Na) (ELV-N32-ME, ELV-N34-ME, ELV-32-Na-d2, ELV-N34-Alkyne) or of vehicle (cerebral spinal fluid; CSF). Treatments were delivered into subdural space at 1 h after TBI. Animals received neurobehavioral examination (normal=0, maximal deficit=12) on days 1, 2, 3, 7 or 14. […] ELV-N34-Alkyne (IV, 300 μg/per animal). All animals received neurobehavioral examination (normal=0, maximal deficit=12) on days 1, 2, 3, 7 or 14.
FIG. 34 is a schematic representation of an experimental protocol for to study the effects of traumatic brain injury through one exemplary model. Briefly, moderate TBI was administered via fluid percussion injury (FPI) to the right parieto-occipital area in male Sprague Dawley rats followed by treatment with elovanoids, behavioral testing, and ex vivo MRI histopathology.
Briefly, Sprague-Dawley rats (280-350 g) were subjected to 4.8 mm craniotomy overlying the right parietal cortex (3.8 mm posterior to bregma and 2.5 mm lateral to midline) was performed 24 hours before fluid percussion injury. A plastic adaptor with a plug was positioned over the craniotomy. […]

| SMILES | anti-apoptotic protein Bcl-2 (ARPE-19 cells under UOS; RPE cells under UOS) | anti-apoptotic protein Bcl-xL (ARPE-19 cells under UOS; RPE cells under UOS) | pro-apoptotic protein Bax (ARPE-19 cells under UOS; VLC-PUFA) | pro-apoptotic protein Bid (ARPE-19 cells under UOS; VLC-PUFA) | pro-apoptotic protein Bim (ARPE-19 cells under UOS; VLC-PUFA) | Iduna expression (ARPE-19 cells under UOS; VLC-PUFA, RPE cells under UOS) | SIRT1 expression (ARPE-19 cells under UOS; VLC-PUFA) | Prohibitin (type-1) expression (ARPE-19 cells under UOS; VLC-PUFA) | neurologic score (normal=0, maximal deficit=12) [1] | Iduna expression (ARPE-19 cells under UOS; 200 nM) | relative potency in upregulating SIRT1 (ARPE-19 cells under UOS; ELV-N32-Na versus ELV-N34-Na) | Sirtuin1 (SIRT1) expression (ARPE-19 cells under UOS) |
| --- | --- | --- | --- | --- | --- | --- | --- | --- | --- | --- | --- | --- |
| CC/C=C\C/C=C\C/C=C\C/C=C\C/C=C\C/C=C\CCCCCCCCCCCCC(=O)O [32:6n3, (14Z,17Z,20Z,23Z,26Z,29Z)-dotriaconta-14,17,20,23,26,29-hexaenoic acid] | upregulate | upregulate | down regulated | down regulated | down regulated | upregulation | upregulation | upregulation |  |  |  |  |
| CC/C=C\C/C=C\C/C=C\C/C=C\C/C=C\C/C=C\CCCCCCCCCCCCCCC(=O)O [34:6n3, (16Z,19Z,22Z,25Z,28Z,31Z)-tetratriaconta-16,19,22,25,28,31-hexaenoic acid] | upregulate | upregulate | down regulated | down regulated | down regulated | upregulation | upregulation | upregulation |  |  |  |  |
| CC/C=C\C[C@H](O)\C=C/C=C/C=C/[C@H](O)C/C=C\C/C=C\CCCCCCCCCCCCC(=O)OC [ELV-N32-Me, methyl (14Z,17Z,20R,21E,23E,25Z,27S,29Z)-20,27-dihydroxydotriaconta-14,17,21,23,25,29-hexaenoate] |  |  |  |  |  |  |  |  | improved neurologic score |  |  |  |
| CC/C=C\C[C@H](O)\C=C/C=C/C=C/[C@H](O)C/C=C\C/C=C\CCCCCCCCCCCCC(=O)[O-].[Na+] [ELV-N32-Na, sodium (14Z,17Z,20R,21E,23E,25Z,27S,29Z)-20,27-dihydroxydotriaconta-14,17,21,23,25,29-hexaenoate] | enhanced the abundance | enhanced the abundance |  |  |  |  |  |  |  | enhanced Iduna expression | more potent than ELV-N34-Na | upregulate |
| CC/C=C\C[C@H](O)\C=C/C=C/C=C/[C@H](O)C/C=C\C/C=C\CCCCCCCCCCCCCCC(=O)OC [ELV-N34-Me, methyl (16Z,19Z,22R,23E,25E,27Z,29S,31Z)-22,29-dihydroxytetratriaconta-16,19,23,25,27,31-hexaenoate] |  |  |  |  |  |  |  |  | improved neurologic score |  |  |  |
| CC/C=C\C[C@H](O)\C=C/C=C/C=C/[C@H](O)C/C=C\C/C=C\CCCCCCCCCCCCCCC(=O)[O-].[Na+] [ELV-N34-Na, sodium (16Z,19Z,22R,23E,25E,27Z,29S,31Z)-22,29-dihydroxytetratriaconta-16,19,23,25,27,31-hexaenoate] | enhanced the abundance | enhanced the abundance |  |  |  |  |  |  |  | enhanced Iduna expression |  | upregulate |
